Assays:
Experiment in all cases: 3H-thymidine assay
Assay type in all cases: cell-based
[1] = test system: Tp 410 N neuroblastoma cells; conditions: Homo sapiens, Neuroblastoma cell
At T 20 = conditions: Mus musculus, AtT20
Procedure, shortened: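 In this antiproliferative test, AtT20 cells were plated at 10^4 per well in 24-well plates and, once roughly half-confluent after approximately 48 hours, switched to medium containing compound. After two ice-cold PBS washes, incorporated label was precipitated with 5% trichloroacetic acid (one hour, 4° C), dissolved in 0.3M NaOH and measured. Thymidine insertion was compared with untreated controls to estimate growth inhibition.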

CAKI-1 cells = conditions: Homo sapiens, CAKI-1
Procedure, shortened: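 Antiproliferative activity against CAKI-1 cells was measured by 3H-thymidine incorporation. After washing in PBS, precipitated radioactivity was solubilized in 0.3M NaOH and counted. Incorporation in substance-treated cells was compared with untreated controls to assess growth inhibition, and the substance concentration giving 50% inhibition of 3H-thymidine insertion was found.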

[2] = test system: Z-R-75-1 breast cancer cells; conditions: Homo sapiens, ZR-75-1
G-361 melanoma cells = conditions: Homo sapiens, G-361
[3] = Table 4, read-out: active substance concentration at which 3H-thymidine insertion was 50% inhibited
[4] = 1 μM/ml, read-out: 3H-thymidine tracer (%) of control
[5] = 2 μM/ml, read-out: 3H-thymidine tracer (%) of control
[6] = 4 μM/ml, read-out: 3H-thymidine tracer (%) of control
[7] = 8 μM/ml, read-out: 3H-thymidine tracer (%) of control
[8] = 16 μM/ml, read-out: 3H-thymidine tracer (%) of control
[9] = 25 μM/ml, read-out: 3H-thymidine tracer (%) of control
[10] = 50 μM/ml, read-out: 3H-thymidine tracer (%) of control
[11] = 100 μM/ml, read-out: 3H-thymidine tracer (%) of control
[12] = 250 μM/ml, read-out: 3H-thymidine tracer (%) of control
[13] = 500 μM/ml, read-out: 3H-thymidine tracer (%) of control
[14] = Table 4, *: maximum usable dosage, no 50% inhibition, read-out: active substance concentration at which 3H-thymidine insertion was 50% inhibited

## COc1cc2ccc(=O)oc2cc1O [Scopoletin, 6-methoxy-7-hydroxy-1,2-benzopyrone]
[1]; 1 μM/ml, read-out: 3H-thymidine insertion (%) of control
  activity at 1 µM: 100%
[1]; 2 μM/ml, read-out: 3H-thymidine insertion (%) of control
  activity at 2 µM: 98%
[1]; 4 μM/ml, read-out: 3H-thymidine insertion (%) of control
  activity at 4 µM: 95%
[1]; 8 μM/ml, read-out: 3H-thymidine insertion (%) of control
  activity at 8 µM: 87%
[1]; 16 μM/ml, read-out: 3H-thymidine insertion (%) of control
  activity at 16 µM: 82%
[1]; 25 μM/ml, read-out: 3H-thymidine insertion (%) of control
  activity at 25 µM: 74%
[1]; 50 μM/ml, read-out: 3H-thymidine insertion (%) of control
  activity at 50 µM: 71%
[1]; 100 μM/ml, read-out: 3H-thymidine insertion (%) of control
  activity at 100 µM: 65%
[1]; 250 μM/ml, read-out: 3H-thymidine insertion (%) of control
  activity at 250 µM: 62%
[1]; 500 μM/ml, read-out: 3H-thymidine insertion (%) of control
  activity at 500 µM: 54%
[1]; [3]
  IC50: 500 µM
At T 20; [4]
  activity at 1 µM: 98%
At T 20; [5]
  activity at 2 µM: 94%
At T 20; [6]
  activity at 4 µM: 89%
At T 20; [7]
  activity at 8 µM: 84%
At T 20; [8]
  activity at 16 µM: 76%
At T 20; [9]
  activity at 25 µM: 68%
At T 20; [10]
  activity at 50 µM: 62%
At T 20; [11]
  activity at 100 µM: 57%
At T 20; [12]
  activity at 250 µM: 49%
At T 20; [13]
  activity at 500 µM: 43%
At T 20; [3]
  IC50: 250 µM
CAKI-1 cells; [4]
  activity at 1 µM: 100%
CAKI-1 cells; [5]
  activity at 2 µM: 98%
CAKI-1 cells; [6]
  activity at 4 µM: 87%
CAKI-1 cells; [7]
  activity at 8 µM: 81%
CAKI-1 cells; [8]
  activity at 16 µM: 80%
CAKI-1 cells; [9]
  activity at 25 µM: 73%
CAKI-1 cells; [10]
  activity at 50 µM: 69%
CAKI-1 cells; [11]
  activity at 100 µM: 67%
CAKI-1 cells; 150 μM/ml, read-out: 3H-thymidine tracer (%) of control
  activity at 150 µM: 62%
CAKI-1 cells; [13]
  activity at 500 µM: 55%
CAKI-1 cells; [14]
  IC50: > 500 µM
[2]; [4]
  activity at 1 µM: 98%
[2]; [5]
  activity at 2 µM: 96%
[2]; [6]
  activity at 4 µM: 91%
[2]; [7]
  activity at 8 µM: 83%
[2]; [8]
  activity at 16 µM: 79%
[2]; [9]
  activity at 25 µM: 72%
[2]; [10]
  activity at 50 µM: 64%
[2]; [11]
  activity at 100 µM: 57%
[2]; [12]
  activity at 250 µM: 55%
[2]; [13]
  activity at 500 µM: 50%
[2]; [14]
  IC50: > 500 µM
G-361 melanoma cells; [4]
  activity at 1 µM: 100%
G-361 melanoma cells; [5]
  activity at 2 µM: 98%
G-361 melanoma cells; [6]
  activity at 4 µM: 96%
G-361 melanoma cells; [7]
  activity at 8 µM: 88%
G-361 melanoma cells; [9]
  activity at 25 µM: 85%
G-361 melanoma cells; [10]
  activity at 50 µM: 85%
G-361 melanoma cells; [11]
  activity at 100 µM: 76%
G-361 melanoma cells; [12]
  activity at 250 µM: 71%
G-361 melanoma cells; [13]
  activity at 500 µM: 67%
G-361 melanoma cells; [14]
  IC50: > 500 µM
